The values that follow come from patent US20070134660A1, “Methods for identifying modulators of kinesin activity” (ROSETTA INPHARMATICS LLC, priority 2003, published 2007).

Common to all, as to format: biochemical
Assay [1] addresses T1, KSP (SEQ ID NO:15) (Homo sapiens, UniProt P52732).
T1 construct: His6 (printed only as 'H')
T1 sequence (P52732 with tags, fused parts or gaps): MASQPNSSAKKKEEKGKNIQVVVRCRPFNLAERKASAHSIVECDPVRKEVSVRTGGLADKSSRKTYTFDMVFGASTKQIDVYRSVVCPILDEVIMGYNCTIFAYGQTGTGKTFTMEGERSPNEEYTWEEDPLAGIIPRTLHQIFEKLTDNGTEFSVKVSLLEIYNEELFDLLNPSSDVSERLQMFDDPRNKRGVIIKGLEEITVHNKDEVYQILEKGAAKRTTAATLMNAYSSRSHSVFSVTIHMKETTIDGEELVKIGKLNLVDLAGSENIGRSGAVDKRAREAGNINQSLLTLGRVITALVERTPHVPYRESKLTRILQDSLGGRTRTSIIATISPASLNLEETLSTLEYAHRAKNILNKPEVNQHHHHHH
Description: KSP motor domain ATPase assay. The settings on record: n = 2.

For assay [2], the target named is T2, nKHC (SEQ ID NO:18) (Homo sapiens, UniProt Q12840).
T2 construct: His6 (printed only as 'H')
T2 sequence (Q12840 with tags, fused parts or gaps): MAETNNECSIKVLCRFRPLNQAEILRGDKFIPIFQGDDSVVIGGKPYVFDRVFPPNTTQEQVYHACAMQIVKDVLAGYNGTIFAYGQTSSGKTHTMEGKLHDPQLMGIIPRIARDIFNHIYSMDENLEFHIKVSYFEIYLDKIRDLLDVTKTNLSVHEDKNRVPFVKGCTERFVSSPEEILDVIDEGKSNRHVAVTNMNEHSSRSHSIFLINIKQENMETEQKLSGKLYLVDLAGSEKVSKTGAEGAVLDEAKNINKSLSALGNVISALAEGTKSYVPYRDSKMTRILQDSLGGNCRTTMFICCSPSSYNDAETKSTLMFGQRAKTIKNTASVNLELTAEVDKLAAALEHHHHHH
Description: nKHC motor domain ATPase assay. The settings on record: read-out: uKHC, nKHC, CENP-E, MKLP-1, KIF1B, MCAK ATPase IC50.

For assay [3], the target named is T3, CENP-E (SEQ ID NO:19) (Homo sapiens, UniProt Q02224).
T3 construct: His6 (printed only as 'H')
T3 sequence (Q02224 with tags, fused parts or gaps): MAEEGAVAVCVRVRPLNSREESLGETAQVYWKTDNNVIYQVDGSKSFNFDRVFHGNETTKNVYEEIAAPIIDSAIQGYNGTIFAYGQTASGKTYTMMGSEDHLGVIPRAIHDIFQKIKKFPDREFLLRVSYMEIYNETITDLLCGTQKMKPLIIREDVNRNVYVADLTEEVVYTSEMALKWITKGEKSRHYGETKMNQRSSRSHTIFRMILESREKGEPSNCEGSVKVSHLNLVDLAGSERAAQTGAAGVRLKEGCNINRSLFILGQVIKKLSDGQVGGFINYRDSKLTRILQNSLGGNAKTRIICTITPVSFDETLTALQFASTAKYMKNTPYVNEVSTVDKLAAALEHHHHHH
Description: CENP-E motor domain ATPase assay. The settings on record: read-out: uKHC, nKHC, CENP-E, MKLP-1, KIF1B, MCAK ATPase IC50.

Assay [4] has as its target T4, KIF1B (SEQ ID NO:21) (Homo sapiens, UniProt O60333).
T4 construct: His6 (printed only as 'H')
T4 sequence (O60333 with tags, fused parts or gaps): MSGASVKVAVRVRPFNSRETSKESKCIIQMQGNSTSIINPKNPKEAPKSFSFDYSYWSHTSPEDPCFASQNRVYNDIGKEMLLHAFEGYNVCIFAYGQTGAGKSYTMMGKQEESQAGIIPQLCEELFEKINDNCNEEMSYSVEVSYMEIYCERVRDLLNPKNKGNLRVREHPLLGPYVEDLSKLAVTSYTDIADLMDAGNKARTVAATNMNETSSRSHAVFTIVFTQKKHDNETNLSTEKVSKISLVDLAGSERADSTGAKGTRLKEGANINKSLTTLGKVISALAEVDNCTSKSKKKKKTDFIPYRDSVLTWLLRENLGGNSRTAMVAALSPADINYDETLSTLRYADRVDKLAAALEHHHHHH
The experiment in a line: KIF1B motor domain ATPase assay. The settings on record: read-out: uKHC, nKHC, CENP-E, MKLP-1, KIF1B, MCAK ATPase IC50.

In general, IC50 refers to the concentration that gives 50% inhibition. As for `CC(C)c1ccc(/C=N/NC(N)=S)cc1[N+](=O)[O-]` [compound 4, 4-isopropyl-3-nitrobenzaldehyde thiosemicarbazone], the IC50 in assay [1] was 1.1 µM; in assay [2], > 40 µM; in assay [3], > 40 µM; in assay [4], > 40 µM.

As to `NC(=S)N/N=C/c1ccc(C2CCCCC2)cc1` [compound 3, 4-cyclohexylbenzaldehyde thiosemicarbazone], the IC50 is 1.53 µM in assay [1], > 40 µM in assay [2], > 40 µM in assay [3] and > 40 µM in assay [4].

With `CC(C)c1ccc(/C=N/NC(N)=S)cc1` [compound 2, 4-isopropylbenzaldehyde thiosemicarbazone], the IC50 is 25.1 µM in assay [1], > 40 µM in assay [2], > 40 µM in assay [3] and > 40 µM in assay [4].

Take `NC(=S)N/N=C\c1ccc(-c2ccccc2)cc1` [compound 1, 1,1′-biphenyl-4-carbaldehyde thiosemicarbazone]: the IC50 in assay [1], in assay [2], in assay [3] and in assay [4] was > 40 µM throughout.
